In PubChem BioAssay AID330 (DTP/NCI, 2004):
“And” between values parts separate entries of the source, which are not always exact repeats. Equal values may be shown once. Inconclusive results and toxic doses are left out. Rule for the calls: active = survival T/C of 150% or more; inactive = T/C below 125% in these data.

Test system: P388 leukemia ip, CD2F1 mice, survival T/C
Assay: NCI In Vivo Anticancer Drug Screen. Data for tumor model P388 Leukemia (intraperitoneal) in CD2F1 (CDF1) mice
Details: endpoint: median survival time, higher = longer survival
Summary of the method: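 Mice carrying the transplanted tumor received test compound or vehicle. Survival was recorded in each group, and the value is the treated-group measurement divided by that of the vehicle-treated control group.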

[1] = dose: 100.0 mg/kg/injection, schedule: Q01DX009 (ip), vehicle: Klucel (hydroxypropylcellulose) (HPC)
[2] = dose: 200.0 mg/kg/injection, schedule: Q01DX009 (ip), vehicle: Klucel (hydroxypropylcellulose) (HPC)
[3] = dose: 50.0 mg/kg/injection, schedule: Q01DX005 (ip), vehicle: Klucel (hydroxypropylcellulose) (HPC)
[4] = dose: 100.0 mg/kg/injection, schedule: Q01DX005 (ip), vehicle: Klucel (hydroxypropylcellulose) (HPC)
[5] = dose: 200.0 mg/kg/injection, schedule: Q01DX005 (ip), vehicle: Klucel (hydroxypropylcellulose) (HPC)
[6] = dose: 50.0 mg/kg/injection, schedule: Q01DX005 (ip), vehicle: saline with Tween-80
[7] = dose: 50.0 mg/kg/injection, schedule: Q01DX009 (ip), vehicle: Klucel (hydroxypropylcellulose) (HPC)

Measured: T/C

CC(=O)NC(Cc1cccc(F)c1)C(=O)O (stereo unspecified)
inactive: dose: 1.56 mg/kg/injection, schedule: Q01DX009 (ip), vehicle: saline 111 % of control | dose: 3.12 mg/kg/injection, schedule: Q01DX009 (ip), vehicle: saline 106 % of control | dose: 6.25 mg/kg/injection, schedule: Q01DX009 (ip), vehicle: saline 107 % of control and 88 % of control

C1=NOC2c3ccc4ccccc4c3CCC12 (stereo unspecified)
inactive: [1] 100 % of control | [2] 95 % of control | dose: 400.0 mg/kg/injection, schedule: Q01DX009 (ip), vehicle: Klucel (hydroxypropylcellulose) (HPC) 100 % of control

NC/C(=N\Nc1ccc([N+](=O)[O-])cc1[N+](=O)[O-])c1ccccc1
inactive: dose: 100.0 mg/kg/injection, schedule: Q04DX003 (ip), vehicle: saline 100 % of control | dose: 200.0 mg/kg/injection, schedule: Q04DX003 (ip), vehicle: saline 113 % of control | dose: 400.0 mg/kg/injection, schedule: Q04DX003 (ip), vehicle: saline 95 % of control

COCc1ccc(C(N)C(=O)O)cc1 (stereo unspecified)
inactive: dose: 100.0 mg/kg/injection, schedule: Q01DX001 (ip), vehicle: saline with Tween-80 92 % of control | dose: 200.0 mg/kg/injection, schedule: Q01DX001 (ip), vehicle: saline with Tween-80 108 % of control

CCC(=O)c1cc(Cl)ccc1O
inactive: dose: 37.5 mg/kg/injection, schedule: Q01DX001 (ip), vehicle: other 104 % of control | dose: 75.0 mg/kg/injection, schedule: Q01DX001 (ip), vehicle: other 100 % of control | dose: 150.0 mg/kg/injection, schedule: Q01DX001 (ip), vehicle: other 100 % of control

COC(=O)C1=CO[C@@H](OC2OC(CO)C(O)C(O)C2O)[C@H]2[C@@H](C)[C@@H](O)[C@@H](O)[C@@H]12 (stereo partly specified)
inactive: dose: 5.25 mg/kg/injection, schedule: Q01DX005 (ip), vehicle: Klucel (hydroxypropylcellulose) (HPC) 100 % of control | dose: 10.5 mg/kg/injection, schedule: Q01DX005 (ip), vehicle: Klucel (hydroxypropylcellulose) (HPC) 95 % of control | dose: 21.0 mg/kg/injection, schedule: Q01DX005 (ip), vehicle: Klucel (hydroxypropylcellulose) (HPC) 104 % of control | dose: 42.0 mg/kg/injection, schedule: Q01DX005 (ip), vehicle: Klucel (hydroxypropylcellulose) (HPC) 99 % of control

CCc1cc2c(=O)[nH]c(-c3cccnc3)nc2s1
inactive: [3] 106 % of control | [4] 100 % of control | [5] 88 % of control

O=C1C(Cl)=C(Nc2cccc3ccccc23)C(=O)C(Cl)=C1Nc1cccc2ccccc12
inactive: [3] 95 % of control | [4] 88 % of control | [5] 88 % of control

O=C(N/N=C\c1c(O)ccc2ccccc12)C1CC1
inactive: [3] 103 % of control | [4] 97 % of control | [5] 101 % of control

N#CCCN1CCC(N)=NC1=NC#N
inactive: dose: 25.0 mg/kg/injection, schedule: Q01DX005 (ip), vehicle: Klucel (hydroxypropylcellulose) (HPC) 100 % of control | [3] 112 % of control | [4] 94 % of control | [5] 96 % of control

Cc1cc2nnn(C3OC(CO)C(O)C3O)c2cc1C (stereo unspecified)
inactive: [3] 105 % of control | [4] 107 % of control | [5] 104 % of control

O=C1CN(c2ccccc2)CC(=O)N2CCCN12
inactive: dose: 12.5 mg/kg/injection, schedule: Q01DX005 (ip), vehicle: saline with Tween-80 100 % of control | dose: 25.0 mg/kg/injection, schedule: Q01DX005 (ip), vehicle: saline with Tween-80 96 % of control | [6] 100 % of control

COc1cc(/C=C/C(=O)N2CCN(CC(=O)N3CCCC3)CC2)cc(OC)c1OC
inactive: dose: 50.0 mg/kg/injection, schedule: Q01DX009 (ip), vehicle: saline 100 % of control | dose: 100.0 mg/kg/injection, schedule: Q01DX009 (ip), vehicle: saline 94 % of control | dose: 200.0 mg/kg/injection, schedule: Q01DX009 (ip), vehicle: saline 95 % of control

COc1ccc(C2CC(C)(O)Oc3cc4c(cc32)OCO4)cc1 (stereo unspecified)
inactive: dose: 60.0 mg/kg/injection, schedule: Q01DX005 (ip), vehicle: Klucel (hydroxypropylcellulose) (HPC) 97 % of control | dose: 120.0 mg/kg/injection, schedule: Q01DX005 (ip), vehicle: Klucel (hydroxypropylcellulose) (HPC) 89 % of control

O=C(N=Nc1c(O)[nH]c2ccccc12)C(=O)Nc1cccc(C(F)(F)F)c1
inactive: dose: 12.5 mg/kg/injection, schedule: Q01DX009 (ip), vehicle: saline with Tween-80 92 % of control | dose: 25.0 mg/kg/injection, schedule: Q01DX009 (ip), vehicle: saline with Tween-80 89 % of control | dose: 50.0 mg/kg/injection, schedule: Q01DX009 (ip), vehicle: saline with Tween-80 86 % of control

CCCCC(=O)NN(Cn1c(=S)sc2ccccc21)Cn1c(=S)sc2ccccc21
inactive: dose: 1.56 mg/kg/injection, schedule: Q01DX009 (ip), vehicle: Klucel (hydroxypropylcellulose) (HPC) 88 % of control | dose: 3.12 mg/kg/injection, schedule: Q01DX009 (ip), vehicle: Klucel (hydroxypropylcellulose) (HPC) 106 % of control and 88 % of control | dose: 6.25 mg/kg/injection, schedule: Q01DX009 (ip), vehicle: Klucel (hydroxypropylcellulose) (HPC) 100 % of control and 86 % of control and 93 % of control | dose: 12.5 mg/kg/injection, schedule: Q01DX009 (ip), vehicle: Klucel (hydroxypropylcellulose) (HPC) 90 % of control and 97 % of control | [7] 88 % of control and 91 % of control

BrCOCCCCOCBr
inactive: dose: 60.0 mg/kg/injection, schedule: Q01DX005 (ip), vehicle: saline 114 % of control | dose: 120.0 mg/kg/injection, schedule: Q01DX005 (ip), vehicle: saline 101 % of control | dose: 240.0 mg/kg/injection, schedule: Q01DX005 (ip), vehicle: saline 108 % of control

O=c1[nH]c(=O)n(C2OC(CO)C(O)C2O)c(NNc2ccccc2)c1NNc1ccccc1 (stereo unspecified)
inactive: [6] 97 % of control | dose: 100.0 mg/kg/injection, schedule: Q01DX005 (ip), vehicle: saline with Tween-80 111 % of control | dose: 200.0 mg/kg/injection, schedule: Q01DX005 (ip), vehicle: saline with Tween-80 117 % of control

c1ccc2c3c(ccc2c1)OP1(=NP(N2CC2)(N2CC2)=NP(N2CC2)(N2CC2)=N1)Oc1ccc2ccccc2c1-3
inactive: dose: 100.0 mg/kg/injection, schedule: Q04DX002 (ip), vehicle: Klucel (hydroxypropylcellulose) (HPC) 101 % of control and 117 % of control | dose: 200.0 mg/kg/injection, schedule: Q04DX002 (ip), vehicle: Klucel (hydroxypropylcellulose) (HPC) 100 % of control | dose: 400.0 mg/kg/injection, schedule: Q04DX002 (ip), vehicle: Klucel (hydroxypropylcellulose) (HPC) 108 % of control | dose: 800.0 mg/kg/injection, schedule: Q04DX002 (ip), vehicle: Klucel (hydroxypropylcellulose) (HPC) 102 % of control

CCOc1ccc2c(N=[N+]=[N-])cc(C)nc2c1
inactive: dose: 30.0 mg/kg/injection, schedule: Q01DX005 (ip), vehicle: saline with Tween-80 94 % of control | dose: 60.0 mg/kg/injection, schedule: Q01DX005 (ip), vehicle: saline with Tween-80 103 % of control and 91 % of control | dose: 120.0 mg/kg/injection, schedule: Q01DX005 (ip), vehicle: saline with Tween-80 92 % of control

CCCCCCCCCCC(=O)Nc1ncc([N+](=O)[O-])s1
inactive: [7] 96 % of control | [1] 100 % of control | [2] 102 % of control
